Test results as given in PubChem BioAssay (NCI).
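In this assay, cells in 96-well plates receive the compound at five concentrations for 48 hours. Endpoints are linearly interpolated between the surrounding concentrations. TGI: concentration producing complete growth inhibition.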

Columns and labels:
Assay in all cases: NCI anticancer screen, dose series, 48 h
OVCAR-4 ovarian = system: OVCAR-4 ovarian
NCI-H522 lung = system: NCI-H522 lung
COLO 205 colon = system: COLO 205 colon
SF-268 CNS = system: SF-268 CNS
SW-620 colon = system: SW-620 colon
DMS 114 small cell lung = system: DMS 114 small cell lung
CCRF-CEM leukemia = system: CCRF-CEM leukemia
UACC-62 melanoma = system: UACC-62 melanoma
RXF-631 renal = system: RXF-631 renal
KM12 colon = system: KM12 colon
HOP-18 NSCLC = system: HOP-18 NSCLC
M19-MEL melanoma = system: M19-MEL melanoma
SNB-75 CNS = system: SNB-75 CNS
UACC-257 melanoma = system: UACC-257 melanoma
LOX IMVI melanoma = system: LOX IMVI melanoma
SF-295 CNS = system: SF-295 CNS
SR leukemia = system: SR leukemia
SK-MEL-5 melanoma = system: SK-MEL-5 melanoma
SNB-78 CNS = system: SNB-78 CNS
RXF 393 renal = system: RXF 393 renal
HL-60(TB) leukemia = system: HL-60(TB) leukemia
MALME-3M melanoma = system: MALME-3M melanoma
NCI-H226 lung = system: NCI-H226 lung
HT29 colon = system: HT29 colon
K-562 leukemia = system: K-562 leukemia
MOLT-4 leukemia = system: MOLT-4 leukemia
TK-10 renal = system: TK-10 renal
HCT-116 colon = system: HCT-116 colon
HCC-2998 colon = system: HCC-2998 colon
786-0 renal = system: 786-0 renal
DMS 273 small cell lung = system: DMS 273 small cell lung
UO-31 renal = system: UO-31 renal
SK-OV-3 ovarian = system: SK-OV-3 ovarian
HCT-15 colon = system: HCT-15 colon
ACHN renal = system: ACHN renal
SNB-19 CNS = system: SNB-19 CNS
KM20L2 colon = system: KM20L2 colon
A498 renal = system: A498 renal
NCI-H460 lung = system: NCI-H460 lung
SN12C renal = system: SN12C renal
CAKI-1 renal = system: CAKI-1 renal
HOP-92 NSCLC = system: HOP-92 NSCLC
U251 CNS = system: U251 CNS
M14 melanoma = system: M14 melanoma
SK-MEL-2 melanoma = system: SK-MEL-2 melanoma
A549 NSCLC = system: A549 NSCLC
HOP-62 NSCLC = system: HOP-62 NSCLC
DLD-1 colon = system: DLD-1 colon
OVCAR-5 ovarian = system: OVCAR-5 ovarian
OVCAR-8 ovarian = system: OVCAR-8 ovarian
IGROV1 ovarian = system: IGROV1 ovarian
SF-539 CNS = system: SF-539 CNS
RPMI-8226 leukemia = system: RPMI-8226 leukemia
LXFL 529 NSCLC = system: LXFL 529 NSCLC

COc1cc2noc(-c3ccccc3)c2cc1OC
TGI (OVCAR-4 ovarian): > 100 µM | TGI (NCI-H522 lung): > 100 µM | TGI (COLO 205 colon): > 100 µM | TGI (SF-268 CNS): > 100 µM | TGI (SW-620 colon): > 100 µM | TGI (DMS 114 small cell lung): > 100 µM | TGI (CCRF-CEM leukemia): > 100 µM | TGI (UACC-62 melanoma): > 100 µM | TGI (RXF-631 renal): > 100 µM | TGI (KM12 colon): > 100 µM | TGI (HOP-18 NSCLC): > 100 µM | TGI (M19-MEL melanoma): > 100 µM | TGI (SNB-75 CNS): 35.4 µM | TGI (UACC-257 melanoma): > 100 µM | TGI (LOX IMVI melanoma): > 100 µM | TGI (SF-295 CNS): 38.6 µM | TGI (SR leukemia): > 100 µM | TGI (SK-MEL-5 melanoma): > 100 µM | TGI (SNB-78 CNS): > 100 µM | TGI (RXF 393 renal): 73.8 µM | TGI (HL-60(TB) leukemia): > 100 µM | TGI (MALME-3M melanoma): > 100 µM | TGI (NCI-H226 lung): > 100 µM | TGI (HT29 colon): > 100 µM | TGI (K-562 leukemia): > 100 µM | TGI (MOLT-4 leukemia): > 100 µM | TGI (TK-10 renal): > 100 µM | TGI (HCT-116 colon): > 100 µM | TGI (HCC-2998 colon): > 100 µM | TGI (786-0 renal): > 100 µM | TGI (DMS 273 small cell lung): > 100 µM | TGI (UO-31 renal): > 100 µM | TGI (SK-OV-3 ovarian): > 100 µM | TGI (HCT-15 colon): > 100 µM | TGI (ACHN renal): > 100 µM | TGI (SNB-19 CNS): > 100 µM | TGI (KM20L2 colon): > 100 µM | TGI (A498 renal): 83.1 µM | TGI (NCI-H460 lung): > 100 µM | TGI (SN12C renal): > 100 µM | TGI (CAKI-1 renal): 92.2 µM | TGI (HOP-92 NSCLC): > 100 µM | TGI (U251 CNS): > 100 µM | TGI (M14 melanoma): > 100 µM | TGI (SK-MEL-2 melanoma): > 100 µM | TGI (A549 NSCLC): > 100 µM | TGI (HOP-62 NSCLC): > 100 µM | TGI (DLD-1 colon): > 100 µM | TGI (OVCAR-5 ovarian): 94 µM | TGI (OVCAR-8 ovarian): > 100 µM | TGI (IGROV1 ovarian): > 100 µM | TGI (SF-539 CNS): > 100 µM | TGI (RPMI-8226 leukemia): 56.7 µM | TGI (LXFL 529 NSCLC): > 100 µM
